From publication PMC7685627, “In vitro investigation of metabolic fate of α-mangostin and gartanin via skin permeation by LC-MS/MS and in silico evaluation of the metabolites by ADMET predictor™” (BMC Complementary Medicine and Therapies, 2020)
“Also recorded” adds a separate entry of the source.

Legend:
HEKn cells [1] = tested on: HEKn cells; parameters: method as in PMID 32615127; conditions: gartanin 9 μM, compound alone; previous experiments ref 16; cited from earlier work
HEKn cells [2] = test: Metabolites during permeation across HEKn cell monolayer by LC-MS/MS; type: in vitro ADME, human; conditions: positive scan mode
Procedure: Human epidermal keratinocyte (neonatal) (HEKn) (InvitrogenTM, Cat# C-001-5C Lot#1654391, Oregon, USA) cells were grown in T-25 flask at 37 °C in an atmosphere of 5% CO2. The adherent keratinocytes were cultured in low calcium (0.09 mM), serum-free, Epilife® medium, and supplement with Human Keratinocyte Growth Supplement (HKGS) at 1% v/v concentration. When a 500 ml of Epilife® medium was supplemented with HKGS the final concentration of the components in the supplement medium were: bovine pituitary extract (BPE) 0.2% v/v, bovine insulin 5 μg/ml, hydrocortisone 0.18 μg/ml, bovine transferrin 5 μg/ml and human epidermal growth factor 0.2 ng/ml. The medium was replaced regularly three times a week until the flask reaches 90% confluence (Fig. 2). The cells were moved from the flasks by incubating the monolayers with 0.5% trypsin for 2–3 min at 37 °C. The cells were collected into centrifuge tubes, and then centrifuged at 1000 rpm for 4 min and the pellets were resuspended in Epilife® medium. Cells used for this study were in third and fourth passage in late sub confluency.
HEKns cells were seeded at a density of 1 × 10^5 cells/cm^2 on permeable supports (Transwell® Costar, 0.4 μm pore size) as shown in Fig. 3. […] The integrity of the HEKns cell monolayer in the transwell plates was determined by measuring Trans Epithelial Electrical Resistance (TEER). […]

HEKn cells [3] = test: Papp, A-B from the previous permeation experiments; type: in vitro ADME, human; conditions: experimental Papp, A-B versus S+MDCK predicted Papp; previous experiments ref 16
CYP2C family of enzymes = tested on: CYP2C family of enzymes; parameters: method as in Foti et al. [20]; conditions: ref Foti et al. [20]; cited from earlier work
CYP1A2 = tested on: CYP1A2; parameters: method as in Foti et al. [20]; conditions: ref Foti et al. [20]; cited from earlier work

Compound | Papp, A-B (HEKn cells [1]) | Metabolism identified by LC-MS/MS (HEKn cells [2]) | Papp, A-B from experiments lower than predicted Papp (HEKn cells [3]) | Inhibition of CYP (CYP2C family of enzymes) | Metabolizing CYP isoform (CYP1A2)
CC(C)=CCc1c(O)c(CC=C(C)C)c2oc3c(O)ccc(O)c3c(=O)c2c1O [Gartanin] | could not be detected | might be conjugated to sulfated derivatives; also recorded: not found to be metabolized in phase I metabolism | – | – | –
COc1c(O)cc2oc3cc(O)c(CC=C(C)C)c(O)c3c(=O)c2c1CC=C(C)C [α-mangostin] | – | might be metabolized via tri-oxidation process | 3 fold | potent inhibited | metabolized primarily by CYP1A2
